Results taken from US20060052459A1, “Antifungal medicaments comprising arylamidine derivatives” (priority 2002, published 2006).
Where two headings read alike, the source gives them in different places.

Tests used:
[1] = test system: Aspergillus fumigatus strain IP 864.64; assay: In vitro antifungal growth inhibition on microtitre plates (optical density 590 nm), compounds alone or as mixtures (Wadley method); format: cell-based; settings: for inhibition at 0.026 µg/mL / inhibition at 0.098 µg/mL / inhibition at 0.39 µg/mL / inhibition at 1.562 µg/mL / inhibition at 6.25 µg/mL / inhibition at 25 µg/mL / inhibition at 100 µg/mL / EC50: Aspergillus fumigatus; for inhibition at 0.026 µg/mL: dose 0.026 μg/ml; for inhibition at 0.098 µg/mL: dose 0.098 μg/ml; for inhibition at 0.39 µg/mL: dose 0.39 μg/ml; for inhibition at 1.562 µg/mL: dose 1.562 μg/ml; for inhibition at 6.25 µg/mL: dose 6.25 μg/ml; for inhibition at 25 µg/mL: dose 25 μg/ml; for inhibition at 100 µg/mL: dose 100 μg/ml
Method: (§1) The following fungi were used for this study: Candida albicans strains IP 48.72 (ATCC 10231) and Aspergillus fumigatus strain IP 864.64 obtained from the Collection Nationale de Cultures de Microorganismes (CNCM) of the Institut Pasteur. The strains are cultured on Yeast Extract-Peptone-Dextrose (YEPD) agar medium comprising 0.5% yeast extract, 0.5% bactopeptone, 2% glucose and 2% agar at 30° C. and in the dark.
(§2) All these compounds were prepared in a DMSO solution at a final concentration of 100 mg/ml. The stock solutions are stored at −20° C. up to the time of use.
(§3) The trials are carried out in RPMI 1640 medium with no sodium bicarbonate, but with L-glutamine buffered with 0.165 mol per litre of 3-[N-morpholino]propanesulphonic acid (MOPS), enriched (<>) or otherwise (<>) with 2% glucose. The pH of this medium is adjusted to 7.0. The medium is sterilized by filtration (0.22 μm) and stored at 4° C. up to the time of use.
(§4) All the antifungal tests are carried out on microtitre plates. The initial suspensions of spores are prepared in a sterile solution containing 0.85% NaCl, supplemented with Tween 80 at 0.01%. These initial suspensions are then diluted in the culture medium (RPMI 1640 enriched or otherwise with 2% glucose) to a final concentration of 10^4 spores per ml. The measurements of viability of each inoculum are verified by subcultures of a volume of 300 μl on YEPD agar medium.
(§5) The antifungal compounds are tested in a range of concentrations ranging from 0.026 to 100 μg of active ingredient/ml. These antifungal compounds are then diluted in RPMI 1640 medium enriched or otherwise with 2% glucose. A final DMSO concentration of 0.2% is used throughout the measurements. Each trial is carried out on a series of dilutions of antifungal compounds, in duplicate. The antifungal dilutions (0.1 ml) and the fungal inoculum (0.1 ml) are added to each of the wells of the microtitre plate. The plates are then read with a spectrophotometer (ELX 800UV Bio-Tek Instruments, Inc) at a wavelength of 590 nm. The plates are read immediately after (t=0) and after 48 hours' incubation at 30° C. and in the dark. The optical density values obtained are correlated with fungal growth between the times t=0 and t=48 hours. The optical density values are used to calculate the percentage inhibition of growth for each concentration of antifungals by comparison with the control. The values are then used to plot a dose-response curve and the EC50 value is determined for each fungus and each compound with the aid of the Grafit 5.0® software (Erithacus software Ltd).
(§6) The method which was used to measure the type of interaction existing between the antifungal compounds in the form of mixtures is the Wadley method.
(§7) In the Wadley approach, the dose-response curve for each of the compounds A and B, and for the mixture AB, is constructed. The EC50 is calculated for each compound taken individually and for the mixture. If a and b are the absolute quantities of the compounds A and B in the mixture (a=1, b=1, a+b=2 under our conditions), the expected effective concentration (EC50exp) may be calculated in the following manner: EC50exp=(a+b)/[a/EC50A)+b/(EC50B)
(§8) The Wadley approach may be used to estimate the type of interaction existing between the fungal compounds, regardless of their concentration. Its reliability is not dependent on the percentage inhibition. The type of interaction between two compounds is given by the level of interaction (LI) which corresponds to the ratio between the expected effective concentration (EC50exp) and that observed (EC50obs) of the mixture. The nature of the interaction obtained by the Wadley formula is presented in Table 1 (see U. Gisi, Synergistic interaction in fungicide mixtures, 1996. Phytopathology 86, 1273-1279) below.
(§9) The experimental conditions are the same as previously described.

[2] = test system: Candida albicans strains IP 48.72 (ATCC 10231); assay: as above; format: cell-based; settings: for inhibition at 0.026 µg/mL / inhibition at 0.098 µg/mL / inhibition at 0.39 µg/mL / inhibition at 1.562 µg/mL / inhibition at 6.25 µg/mL / inhibition at 25 µg/mL / inhibition at 100 µg/mL / EC50: Candida albicans; for inhibition at 0.026 µg/mL: dose 0.026 μg/ml; for inhibition at 0.098 µg/mL: dose 0.098 μg/ml; for inhibition at 0.39 µg/mL: dose 0.39 μg/ml; for inhibition at 1.562 µg/mL: dose 1.562 μg/ml; for inhibition at 6.25 µg/mL: dose 6.25 μg/ml; for inhibition at 25 µg/mL: dose 25 μg/ml; for inhibition at 100 µg/mL: dose 100 μg/ml
Method: as §1, §2, §3, §4, §5, §6, §7, §8, §9

[3] = IP864.64, 48 h, minimal RPMI 1640 medium (MM), 48 hours at 30° C.
[4] = IP864.64, 48 h, rich RPMI 1640 medium (RM), 48 hours at 30° C.
[5] = IP864.64, 48 h, second study, strain IP 864.64, RPMI 1640 medium enriched with 2% glucose, 48 hours at 30° C., read-out: EC50
[6] = ATCC10231, 48 h, minimal RPMI 1640 medium (MM), 48 hours at 30° C.
[7] = ATCC10231, 48 h, rich RPMI 1640 medium (RM), 48 hours at 30° C.
[8] = ATCC10231, 48 h, minimal RPMI 1640 medium (MM), 48 hours at 30° C., used alone, read-out: EC50
[9] = ATCC10231, 48 h, rich RPMI 1640 medium (RM), 48 hours at 30° C., used alone, read-out: EC50
[10] = ATCC10231, 48 h, second study, strain IP 48.72, RPMI 1640 medium enriched with 2% glucose, 48 hours at 30° C., read-out: EC50

Compound	inhibition at 0.026 µg/mL [1, 3]	inhibition at 0.026 µg/mL [1, 4]	inhibition at 0.098 µg/mL [1, 3]	inhibition at 0.098 µg/mL [1, 4]	inhibition at 0.39 µg/mL [1, 3]	inhibition at 0.39 µg/mL [1, 4]	inhibition at 1.562 µg/mL [1, 3]	inhibition at 1.562 µg/mL [1, 4]	inhibition at 6.25 µg/mL [1, 3]	inhibition at 6.25 µg/mL [1, 4]	inhibition at 25 µg/mL [1, 3]	inhibition at 25 µg/mL [1, 4]	inhibition at 100 µg/mL [1, 3]	inhibition at 100 µg/mL [1, 4]	EC50 [1, 5]	inhibition at 0.026 µg/mL [2, 6]	inhibition at 0.026 µg/mL [2, 7]	inhibition at 0.098 µg/mL [2, 6]	inhibition at 0.098 µg/mL [2, 7]	inhibition at 0.39 µg/mL [2, 6]	further results
CCN(C)C=Nc1cc(C)c(Oc2ccc(Cl)c(C(F)(F)F)c2)cc1C [Compound I.1, N-ethyl-N-methyl-N′-[4-(4-chloro-3-trifluoromethylphenoxy)-2,5-dimethylphenyl]imidoformamide]	1%	2.24%	57.9%	23.1%	80.1%	51.1%	94.6%	97.4%	97.1%	98.1%	98.4%	98.1%	98.1%	97.4%	0.179 µg/mL	4.6%	12.6%	7%	27.3%	46.1%	EC50 ([1]; IP864.64, 48 h, minimal RPMI 1640 medium (MM), 48 hours at 30° C., used alone, read-out: EC50): 0.1 µg/mL; EC50 ([1]; IP864.64, 48 h, rich RPMI 1640 medium (RM), 48 hours at 30° C., used alone, read-out: EC50): 0.31 µg/mL; EC50 ([1]; IP864.64, on minimal (MM) or rich (RM) RPMI 1640 medium, summary in conclusions, read-out: EC50 values): 0.1 to 0.5 µg/mL; activity compared with itraconazole (compound II.2) ([1]; MM or RM medium): equivalent; EC50 compared with that of compound II.2 ([1]; second study, IP 864.64, enriched medium): similar; inhibition at 0.39 µg/mL [2, 7]: 43.6%; inhibition at 1.562 µg/mL [2, 6]: 96.2%; inhibition at 1.562 µg/mL [2, 7]: 96.9%; inhibition at 6.25 µg/mL [2, 6]: 98.7%; inhibition at 6.25 µg/mL [2, 7]: 99.5%; inhibition at 25 µg/mL [2, 6]: 99.2%; inhibition at 25 µg/mL [2, 7]: 99.5%; inhibition at 100 µg/mL [2, 6]: 98.1%; inhibition at 100 µg/mL [2, 7]: 98.8%; EC50 [2, 8]: 0.41 µg/mL; EC50 [2, 9]: 0.3 µg/mL; EC50 [2, 10]: 0.635 µg/mL; EC50 ([2]; ATCC10231, on minimal (MM) or rich (RM) RPMI 1640 medium, summary in conclusions, read-out: EC50 values): 0.1 to 0.5 µg/mL; activity compared with fluconazole (compound II.1) ([2]; MM or RM medium): at least equivalent
OC(Cn1cncn1)(Cn1cncn1)c1ccc(F)cc1F [Compound II.1, fluconazole]	4.8%	11.2%	4.8%	20.7%	5.8%	25.9%	8.7%	27.6%	7.7%	28.4%	23.1%	48.3%	41.4%	46.6%	125 µg/mL	2.1%	11.1%	9.7%	32.5%	38.5%	EC50 ([1]; IP864.64, 48 h, minimal RPMI 1640 medium (MM), 48 hours at 30° C., extrapolated with Grafit 5.0, read-out: EC50 (extrapolated from the dose-response curves)): 575 µg/mL; EC50 ([1]; IP864.64, 48 h, rich RPMI 1640 medium (RM), 48 hours at 30° C., extrapolated with Grafit 5.0, read-out: EC50 (extrapolated from the dose-response curves)): 125 µg/mL; inhibition at 0.39 µg/mL [2, 7]: 72.6%; inhibition at 1.562 µg/mL [2, 6]: 64.7%; inhibition at 1.562 µg/mL [2, 7]: 86.8%; inhibition at 6.25 µg/mL [2, 6]: 77.7%; inhibition at 6.25 µg/mL [2, 7]: 94%; inhibition at 25 µg/mL [2, 6]: 81.9%; inhibition at 25 µg/mL [2, 7]: 95.3%; inhibition at 100 µg/mL [2, 6]: 91.6%; inhibition at 100 µg/mL [2, 7]: 36.1%; EC50 [2, 8]: 0.96 µg/mL; EC50 [2, 9]: 0.19 µg/mL; EC50 [2, 10]: 0.354 µg/mL
